Tests used:
blackgrass [1] = assay: Test A preemergence; assay type: in vivo, Alopecurus myosuroides
Outline: (§1)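 Visual injury ratings on a 0–100 scale (100 = complete control) versus untreated controls, taken 10 days after treatment in greenhouse. Preemergence: directed soil spray onto seeded loam/sand. Postemergence: foliar application at one- to two-leaf stage, plants 2–10 cm. Formulation: non-phytotoxic solvent plus surfactant.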

corn [2] = assay: Test A preemergence; assay type: in vivo, Zea mays
Outline: as §1

foxtail, giant [3] = assay: Test A preemergence; assay type: in vivo, Setaria faberi
Outline: as §1

goosegrass [4] = assay: Test A preemergence; assay type: in vivo, Eleusine indica
Outline: as §1

kochia [5] = assay: Test A preemergence; assay type: in vivo, Bassia scoparia
Outline: as §1

oat, wild [6] = assay: Test A preemergence; assay type: in vivo, Avena fatua
Outline: as §1

pigweed, palmer [7] = assay: Test A preemergence; assay type: in vivo, Amaranthus palmeri
Outline: as §1

ragweed [8] = assay: Test A preemergence; assay type: in vivo, Ambrosia artemisiifolia
Outline: as §1

ryegrass, Italian [9] = assay: Test A preemergence; assay type: in vivo, Lolium multiflorum
Outline: as §1

soybean [10] = assay: Test A preemergence; assay type: in vivo, Glycine max
Outline: as §1

wheat [11] = assay: Test A preemergence; assay type: in vivo, Triticum aestivum
Outline: as §1

blackgrass [12] = assay: Test A postemergence; assay type: in vivo, Alopecurus myosuroides; details: postemergence, 10 days
Outline: as §1

corn [13] = assay: Test A postemergence; assay type: in vivo, Zea mays; details: postemergence, 10 days
Outline: as §1

foxtail, giant [14] = assay: Test A postemergence; assay type: in vivo, Setaria faberi; details: postemergence, 10 days
Outline: as §1

goosegrass [15] = assay: Test A postemergence; assay type: in vivo, Eleusine indica; details: postemergence, 10 days
Outline: as §1

kochia [16] = assay: Test A postemergence; assay type: in vivo, Bassia scoparia; details: postemergence, 10 days
Outline: as §1

oat, wild [17] = assay: Test A postemergence; assay type: in vivo, Avena fatua; details: postemergence, 10 days
Outline: as §1

pigweed, palmer [18] = assay: Test A postemergence; assay type: in vivo, Amaranthus palmeri; details: postemergence, 10 days
Outline: as §1

ragweed [19] = assay: Test A postemergence; assay type: in vivo, Ambrosia artemisiifolia; details: postemergence, 10 days
Outline: as §1

ryegrass, Italian [20] = assay: Test A postemergence; assay type: in vivo, Lolium multiflorum; details: postemergence, 10 days
Outline: as §1

soybean [21] = assay: Test A postemergence; assay type: in vivo, Glycine max; details: postemergence, 10 days
Outline: as §1

wheat [22] = assay: Test A postemergence; assay type: in vivo, Triticum aestivum; details: postemergence, 10 days
Outline: as §1

galium = assay: Test A postemergence; assay type: in vivo, Galium aparine; details: postemergence, 10 days
Outline: as §1

horseweed = assay: Test A postemergence; assay type: in vivo, Erigeron canadensis; details: postemergence, 10 days
Outline: as §1

barnyardgrass = assay: Test B flooded paddy test; assay type: in vivo, Echinochloa crus-galli; details: 250 g ai/ha, Flood, 13 days, 0 to 100 scale (0 no effect, 100 complete control)
Outline: (§2)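 Each species was raised to the 2-leaf stage. At treatment, each pot received floodwater 3 cm deep, with the chemical delivered into the water. Greenhouse holding followed for 13 days, then percent control was estimated visually versus untreated pots.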

ducksalad = assay: Test B flooded paddy test; assay type: in vivo, Heteranthera limosa; details: 250 g ai/ha, Flood, 13 days, 0 to 100 scale (0 no effect, 100 complete control)
Outline: as §2

rice = assay: Test B flooded paddy test; assay type: in vivo, Oryza sativa; details: 250 g ai/ha, Flood, 13 days, 0 to 100 scale (0 no effect, 100 complete control)
Outline: as §2

sedge, umbrella = assay: Test B flooded paddy test; assay type: in vivo, Cyperus difformis; details: 250 g ai/ha, Flood, 13 days, 0 to 100 scale (0 no effect, 100 complete control)
Outline: as §2

[23] = 125 g ai/ha, visual injury after 10 days, 0 to 100 scale, 0 is no effect, 100 is complete control
[24] = 500 g ai/ha, 0 to 100 scale (0 no effect, 100 complete control), 10 days
[25] = 125 g ai/ha, 0 to 100 scale, 0 no effect, 100 complete control
[26] = 500 g ai/ha, visual injury, 0 to 100 scale (0 no effect, 100 complete control)

With `CCc1ncn(-c2ccc(C)c(C(=O)N3C[C@H](C)Oc4c(C)cccc43)c2)n1` [Compound 98] the “Plant response rating, Blackgrass” value (blackgrass [1]; [23]) was 60, the “Plant response rating, Blackgrass” value (blackgrass [1]; [24]) was 80 and the “Plant response rating, Corn” value (corn [2]; [23]) was 10. The “Plant response rating, Corn” value (corn [2]; [24]) was 30, the “Plant response rating, Foxtail, Giant” value (foxtail, giant [3]; [23]) was 100 and the “Plant response rating, Foxtail, Giant” value (foxtail, giant [3]; [24]) was 100. The “Plant response rating, Goosegrass” value (goosegrass [4]; [23]) was 100, the “Plant response rating, Goosegrass” value (goosegrass [4]; [24]) was 100 and the “Plant response rating, Kochia” value (kochia [5]; [23]) was 80. The “Plant response rating, Kochia” value (kochia [5]; [24]) was 100, the “Plant response rating, Oat, Wild” value (oat, wild [6]; [23]) was 70 and the “Plant response rating, Oat, Wild” value (oat, wild [6]; [24]) was 90. The “Plant response rating, Pigweed, Palmer” value (pigweed, palmer [7]; [23]) was 100, the “Plant response rating, Pigweed, Palmer” value (pigweed, palmer [7]; [24]) was 100 and the “Plant response rating, Ragweed” value (ragweed [8]; [23]) was 30. The “Plant response rating, Ragweed” value (ragweed [8]; [24]) was 90, the “Plant response rating, Ryegrass, Italian” value (ryegrass, Italian [9]; [23]) was 100 and the “Plant response rating, Ryegrass, Italian” value (ryegrass, Italian [9]; [24]) was 100. The “Plant response rating, Soybean” value (soybean [10]; [23]) was 90, the “Plant response rating, Soybean” value (soybean [10]; [24]) was 100 and the “Plant response rating, Wheat” value (wheat [11]; [23]) was 50. The “Plant response rating, Wheat” value (wheat [11]; [24]) was 60, the “Blackgrass plant response rating” value (blackgrass [12]; [25]) was 70 and the “Plant response rating, Blackgrass” value (blackgrass [12]; [26]) was 90. The “Corn plant response rating” value (corn [13]; [25]) was 50, the “Plant response rating, Corn” value (corn [13]; [26]) was 90 and the “Foxtail, Giant plant response rating” value (foxtail, giant [14]; [25]) was 90. The “Plant response rating, Foxtail, Giant” value (foxtail, giant [14]; [26]) was 90, the “Goosegrass plant response rating” value (goosegrass [15]; [25]) was 80 and the “Plant response rating, Goosegrass” value (goosegrass [15]; [26]) was 100. For the same compound, the “Kochia plant response rating” value (kochia [16]; [25]) was 80, the “Plant response rating, Kochia” value (kochia [16]; [26]) was 90 and the “Oat, Wild plant response rating” value (oat, wild [17]; [25]) was 80. The “Plant response rating, Oat, Wild” value (oat, wild [17]; [26]) was 90, the “Pigweed, Palmer plant response rating” value (pigweed, palmer [18]; [25]) was 90 and the “Plant response rating, Pigweed, Palmer” value (pigweed, palmer [18]; [26]) was 100. The “Ragweed plant response rating” value (ragweed [19]; [25]) was 60, the “Plant response rating, Ragweed” value (ragweed [19]; [26]) was 60 and the “Ryegrass, Italian plant response rating” value (ryegrass, Italian [20]; [25]) was 70. The “Plant response rating, Ryegrass, Italian” value (ryegrass, Italian [20]; [26]) was 100, the “Soybean plant response rating” value (soybean [21]; [25]) was 100 and the “Plant response rating, Soybean” value (soybean [21]; [26]) was 100. For the same compound, the “Wheat plant response rating” value (wheat [22]; [25]) was 80, the “Plant response rating, Wheat” value (wheat [22]; [26]) was 90 and the “Galium plant response rating” value (galium; [25]) was 100. The “Plant response rating, Galium” value (galium; [26]) was 100, the “Horseweed plant response rating” value (horseweed; [25]) was 30 and the “Plant response rating, Horseweed” value (horseweed; [26]) was 60. For the same compound, the “Plant response rating, Barnyardgrass” value (barnyardgrass) was 45, the “Plant response rating, Ducksalad” value (ducksalad) was 65 and the “Plant response rating, Rice” value (rice) was 30. The “Plant response rating, Sedge, Umbrella” value (sedge, umbrella) was 90.
